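In this assay, cells in 96-well plates receive the compound at five concentrations for 48 hours. Endpoints are linearly interpolated between the surrounding concentrations. At the GI50, growth is halved. At the TGI there is no net growth.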 Where a SMILES comes first, the peptide text is derived from it.

Holding throughout (test): NCI tumour cell line growth inhibition, 48 h
The subject of assay [1] is NCI-H460 lung.
Assay [2] has as its system RPMI-8226 leukemia.
Assay [3] relates to CAKI-1 renal.
Assay [4] relates to OVCAR-3 ovarian.
Assay [5] concerns UACC-62 melanoma.
For assay [6], the system named is CCRF-CEM leukemia.
Assay [7] has as its system HOP-92 NSCLC.
The test system of assay [8] is UACC-257 melanoma.
In assay [9] the test system is TK-10 renal.
Assay [10] deals with SF-539 CNS.

For `COc1cc(/C=C2\C(=O)Nc3ccc(Cl)cc32)cc(OC)c1OC`, the GI50 was 24.2 µM in assay [1]; 3.9 µM in assay [2]; 23.6 µM in [3]; 19.6 µM in assay [4]; 16.3 µM in assay [5]; 7.28 µM in assay [6]. The GI50 in assay [7] is 3.39 µM; in [8], 29.5 µM; in assay [9] it was 24 µM; in assay [10], 16.8 µM. Besides, the TGI in assay [1], in assay [2], in assay [3], in assay [4], in assay [5] and in [6] was above 100 µM each time. Further, the TGI in assay [7] is 22.9 µM; in assay [8] it was above 100 µM; in [9], 78.3 µM; in [10] it was 45.6 µM.

In the case of `O=C([O-])c1ccccc1Nc1ccccc1C(=O)[O-].[OH3+].[Zn+2]`, the TGI is above 100 µM in [1]; above 100 µM in assay [2]; 8.45 µM in [3]; 32.9 µM in assay [4]; 39.9 µM in assay [5]; 61.6 µM in assay [6]. In addition, the TGI in [7] is 45.7 µM; in assay [8], 21.5 µM; in assay [9], above 100 µM; in [10] it was above 82.9 µM.

Regarding `COc1cc2c(c(OC)c1OC)-c1ccc(OC)c(=O)cc1C(NC(=O)CCCCCNc1ccc(N=[N+]=[N-])cc1[N+](=O)[O-])CC2` (configuration not stated), the TGI is below 0.0139 µM in [1]; below 0.01 µM in assay [2]; 18.4 µM in assay [3]; below 0.0152 µM in [4]; below 0.01 µM in [5]; 57.8 µM in [9]. The same molecule displayed a TGI in assay [10] below 0.01 µM.

As for `N#CC1(C#N)C(=O)c2ccncc2C1=O`, the TGI in assay [1], in assay [2], in assay [3], in assay [4], in [5] and in assay [6] was above 100 µM throughout. In addition, the TGI in [7], in [8] and in assay [10] was above 100 µM each time.

For `CCCCC1Nc2ccccc2-c2ccnc(Cl)c21` (configuration not stated), the TGI in assay [1] was above 100 µM; in assay [2] it was 31.9 µM; in assay [3] it was 20.2 µM; in assay [4], 25.2 µM; in assay [5] it was 32.2 µM; in assay [6], 52.6 µM. In addition, the TGI in [7] is 40.9 µM; in [8] it was 42.3 µM; in assay [9] it was above 100 µM; in assay [10] it was 41.8 µM.

`Brc1ccc2nc(-c3cccs3)nc(N3CCN(c4ccccc4)CC3)c2c1`: the TGI in assay [1], in assay [2], in [3], in assay [4], in [5] and in [7] was above 100 µM throughout. For the same molecule, the TGI in assay [8], in [9] and in assay [10] was above 100 µM throughout.

Regarding `N=C1c2ccccc2C(=O)c2c(NCCNCCO)ccc(O)c21`, the TGI in [1] was determined as 15.1 µM; in [2] it was 24.6 µM; in assay [3] it was 26.5 µM; in assay [4], 52.7 µM; in assay [5], 18.9 µM; in assay [6], 53.9 µM. Besides, the TGI in assay [7] is above 71.2 µM; in assay [8] it was above 51.6 µM; in assay [9] it was above 62.3 µM; in assay [10] it was 16.3 µM.

On to `COC1=CC(c2ccc[nH]2)=N/C1=C\c1[nH]c(C)c(CC(=O)NCc2ccccc2)c1C`, for which the GI50 in [3] was 1.48 µM; in assay [4], 1.46 µM; in assay [7], 1.4 µM; in assay [8], 1.72 µM; in assay [9], 1.75 µM; in [10], 1.89 µM. For the same molecule, the TGI in [3] came to 2.85 µM; in assay [4], 2.91 µM; in assay [7], 2.94 µM; in [8] it was 3.17 µM; in assay [9] it was 3.24 µM; in [10], 3.51 µM.

For the molecule `CC(=O)NC(CS)C(=O)NC(CO)C(=O)NC(CO)C(=O)NC(Cc1c[nH]c2ccccc12)C(=O)N1CCCC1C(=O)NC(CO)C(=O)NC(Cc1c[nH]c2ccccc12)C(=O)NC(Cc1c[nH]cn1)C(=O)NC(CO)C(=O)NC(Cc1c[nH]c2ccccc12)C(=O)NCC(=O)NCC(=O)NC(C)C(=O)NC(CCC(N)=O)C(=O)NC(CCCCN)C(=O)NC(C)C(=O)NC(CCCNC(=N)N)C(=O)NC(CCCCN)C(N)=O` (configuration not stated) (Ac-CSSWPSWHSWGGAQKARK-NH2; configuration not given here), the TGI in [1] was 35.5 µM; in [2] it was above 50 µM; in assay [3] it was 33.6 µM; in assay [4] it was above 50 µM; in assay [5], 24 µM; in [6] it was above 50 µM. In addition, the TGI in [7] was above 50 µM; in assay [8], 19.6 µM; in assay [9], above 50 µM; in assay [10], above 50 µM.

Take `COc1cc(-c2n/c(=C\c3c(O)[nH]c4ccccc34)cc3c2=Nc2ccccc2-3)ccc1F`: the GI50 is 4.37 µM in assay [1]; 17.5 µM in assay [2]; 38.5 µM in assay [3]; 4.08 µM in assay [4]; 5.98 µM in assay [5]; 4.75 µM in assay [6]. The GI50 in [7] was 3.29 µM; in [8], 15 µM; in [9], 3.89 µM; in assay [10] it was 11.7 µM. Besides, the TGI is 58.2 µM in [1]; above 100 µM in [2]; above 100 µM in assay [3]; 14.5 µM in assay [4]; 21.7 µM in assay [5]; above 100 µM in [6]. For the same molecule, the TGI in assay [7] turned out to be 19.9 µM; in assay [8], 40 µM; in assay [9], 13 µM; in assay [10], 33.2 µM.

The values above are taken from PubChem BioAssay (NCI).
